In ChEMBL document CHEMBL3885881, “DrugMatrix”:

Organism: Rattus norvegicus
Assay: DrugMatrix - Regimen: Daily Repeat
Assay type: toxicity, organism-based, Sprague-Dawley
Set-up: regimen Daily Repeat, gender Male, age 6-8 weeks
Conditions: in vivo, po, route oral GAVAGE, […]; for URIC ACID / ALANINE AMINOTRANSFERASE / ALBUMIN / ALKALINE PHOSPHATASE / ASPARTATE AMINOTRANSFERASE / BLOOD UREA NITROGEN / CARBON DIOXIDE / CHLORIDE / CREATINE PHOSPHOKINASE / CREATININE / GLUCOSE / LACTATE DEHYDROGENASE / LIPASE / PHOSPHORUS / POTASSIUM / SODIUM / TOTAL BILIRUBIN / TOTAL PROTEIN / CHOLESTEROL: tissue Plasma; for ABSOLUTE BASOPHIL / ABSOLUTE EOSINOPHIL / ABSOLUTE LYMPHOCYTE / ABSOLUTE MONOCYTE / ABSOLUTE SEGMENTED NEUTROPHIL / BASOPHIL / EOSINOPHIL / ERYTHROCYTE COUNT / HEMATOCRIT / HEMOGLOBIN / LEUKOCYTE COUNT / LYMPHOCYTE / MEAN CORPUSCULAR HEMOGLOBIN / MEAN CORPUSCULAR HEMOGLOBIN CONCENTRATION / MONOCYTE / NEUTROPHIL / NUCLEATED RED BLOOD CELLS / PLATELET COUNT: tissue Blood
[1] = 250 mg/kg, 120 h, dose level Low, time 5 day
[2] = 2500 mg/kg, 72 h, dose level High, time 3 day
[3] = 2500 mg/kg, 120 h, dose level High, time 5 day

Cc1noc(NS(=O)(=O)c2ccc(N)cc2)c1C [SULFISOXAZOLE] was tested, and the “URIC ACID” value (250 mg/kg, 72 h, dose level Low, time 3 day) was 1.8 mg/dL, the “ABSOLUTE BASOPHIL” value [1] was 0 CELLS/uL and the “ABSOLUTE EOSINOPHIL” value [1] was 0 CELLS/uL. The “ABSOLUTE LYMPHOCYTE” value [1] was 9180.67 CELLS/uL, the “ABSOLUTE MONOCYTE” value [1] was 0 CELLS/uL and the “ABSOLUTE SEGMENTED NEUTROPHIL” value [1] was 986 CELLS/uL. The BASOPHIL [1] was 0%, the EOSINOPHIL [1] was 0% and the “ERYTHROCYTE COUNT” value [1] was 5.62 x10E6/uL. The HEMATOCRIT [1] was 34.93%, the HEMOGLOBIN [1] was 13.27 G/DL and the “LEUKOCYTE COUNT” value [1] was 10.17 x10E3/uL. The LYMPHOCYTE [1] was 90.67%, the “MEAN CORPUSCULAR HEMOGLOBIN” value [1] was 23.63 pg and the “MEAN CORPUSCULAR HEMOGLOBIN CONCENTRATION” value [1] was 38 G/DL. The MONOCYTE [1] was 0%, the NEUTROPHIL [1] was 9.33% and the “NUCLEATED RED BLOOD CELLS” value [1] was 0 /100WBC. The “PLATELET COUNT” value [1] was 1021 x10E3/uL, the “ALANINE AMINOTRANSFERASE” value [1] was 64.33 u/L and the ALBUMIN [1] was 4 G/DL. For the same molecule, the “ALKALINE PHOSPHATASE” value [1] was 394 u/L, the “ASPARTATE AMINOTRANSFERASE” value [1] was 103.67 u/L and the “BLOOD UREA NITROGEN” value [1] was 15 mg/dL. The “CARBON DIOXIDE” value [1] was 30.67 mmol/L, the CHLORIDE [1] was 101.67 MEQ/L and the “CREATINE PHOSPHOKINASE” value [1] was 404 u/L. The CREATININE [1] was 0.18 mg/dL, the GLUCOSE [1] was 149.33 mg/dL and the “LACTATE DEHYDROGENASE” value [1] was 127.33 u/L. For the same molecule, the LIPASE [1] was 11 u/L, the PHOSPHORUS [1] was 10.7 mg/dL and the POTASSIUM [1] was 5.9 MEQ/L. The SODIUM [1] was 143.87 MEQ/L, the “TOTAL BILIRUBIN” value [1] was 0.17 mg/dL and the “TOTAL PROTEIN” value [1] was 5.9 G/DL. The “URIC ACID” value [1] was 1 mg/dL, the “ABSOLUTE BASOPHIL” value [2] was 0 CELLS/uL and the “ABSOLUTE EOSINOPHIL” value [2] was 133 CELLS/uL. The “ABSOLUTE LYMPHOCYTE” value [2] was 8008.67 CELLS/uL, the “ABSOLUTE MONOCYTE” value [2] was 152 CELLS/uL and the “ABSOLUTE SEGMENTED NEUTROPHIL” value [2] was 3173 CELLS/uL. The BASOPHIL [2] was 0%, the EOSINOPHIL [2] was 1% and the “ERYTHROCYTE COUNT” value [2] was 4.62 x10E6/uL. For the same molecule, the HEMATOCRIT [2] was 28.6%, the HEMOGLOBIN [2] was 11.27 G/DL and the “LEUKOCYTE COUNT” value [2] was 11.47 x10E3/uL. For the same molecule, the LYMPHOCYTE [2] was 67%, the “MEAN CORPUSCULAR HEMOGLOBIN” value [2] was 24.33 pg and the “MEAN CORPUSCULAR HEMOGLOBIN CONCENTRATION” value [2] was 39.47 G/DL. The MONOCYTE [2] was 1%, the NEUTROPHIL [2] was 31% and the “NUCLEATED RED BLOOD CELLS” value [2] was 0 /100WBC. For the same molecule, the “PLATELET COUNT” value [2] was 1118.33 x10E3/uL, the “ALANINE AMINOTRANSFERASE” value [2] was 65.33 u/L and the ALBUMIN [2] was 4 G/DL. The “ALKALINE PHOSPHATASE” value [2] was 312 u/L, the “ASPARTATE AMINOTRANSFERASE” value [2] was 109.67 u/L and the “BLOOD UREA NITROGEN” value [2] was 13.67 mg/dL. For the same molecule, the “CARBON DIOXIDE” value [2] was 24.67 mmol/L, the CHLORIDE [2] was 98.33 MEQ/L and the CHOLESTEROL [2] was 78.33 mg/dL. For the same molecule, the “CREATINE PHOSPHOKINASE” value [2] was 1633.33 u/L, the CREATININE [2] was 0.24 mg/dL and the GLUCOSE [2] was 172.33 mg/dL. For the same molecule, the “LACTATE DEHYDROGENASE” value [2] was 198.67 u/L, the LIPASE [2] was 10.67 u/L and the PHOSPHORUS [2] was 11.6 mg/dL. The POTASSIUM [2] was 4.69 MEQ/L, the SODIUM [2] was 140.23 MEQ/L and the “TOTAL BILIRUBIN” value [2] was 0.0667 mg/dL. The “TOTAL PROTEIN” value [2] was 6.13 G/DL, the “URIC ACID” value [2] was 1.5 mg/dL and the “ABSOLUTE BASOPHIL” value [3] was 0 CELLS/uL. The “ABSOLUTE EOSINOPHIL” value [3] was 0 CELLS/uL, the “ABSOLUTE LYMPHOCYTE” value [3] was 10533.67 CELLS/uL and the “ABSOLUTE MONOCYTE” value [3] was 131 CELLS/uL. For the same molecule, the “ABSOLUTE SEGMENTED NEUTROPHIL” value [3] was 502 CELLS/uL, the BASOPHIL [3] was 0% and the EOSINOPHIL [3] was 0%. For the same molecule, the “ERYTHROCYTE COUNT” value [3] was 5.59 x10E6/uL, the HEMATOCRIT [3] was 35.7% and the HEMOGLOBIN [3] was 13.8 G/DL. For the same molecule, the “LEUKOCYTE COUNT” value [3] was 11.17 x10E3/uL, the LYMPHOCYTE [3] was 94.33% and the “MEAN CORPUSCULAR HEMOGLOBIN” value [3] was 24.7 pg. The “MEAN CORPUSCULAR HEMOGLOBIN CONCENTRATION” value [3] was 38.63 G/DL, the MONOCYTE [3] was 1% and the NEUTROPHIL [3] was 4.67%. For the same molecule, the “NUCLEATED RED BLOOD CELLS” value [3] was 0 /100WBC, the “PLATELET COUNT” value [3] was 1151.33 x10E3/uL and the “ALANINE AMINOTRANSFERASE” value [3] was 87.67 u/L. The ALBUMIN [3] was 4.17 G/DL, the “ALKALINE PHOSPHATASE” value [3] was 442.67 u/L and the “ASPARTATE AMINOTRANSFERASE” value [3] was 84.33 u/L. The “BLOOD UREA NITROGEN” value [3] was 19.33 mg/dL, the “CARBON DIOXIDE” value [3] was 31 mmol/L and the CHLORIDE [3] was 101.67 MEQ/L. For the same molecule, the CHOLESTEROL [3] was 73.33 mg/dL, the “CREATINE PHOSPHOKINASE” value [3] was 296.67 u/L and the CREATININE [3] was 0.23 mg/dL. For the same molecule, the GLUCOSE [3] was 139 mg/dL, the “LACTATE DEHYDROGENASE” value [3] was 98 u/L and the LIPASE [3] was 11 u/L. The PHOSPHORUS [3] was 9.13 mg/dL, the POTASSIUM [3] was 5.93 MEQ/L and the SODIUM [3] was 145.57 MEQ/L. The “TOTAL BILIRUBIN” value [3] was 0.1 mg/dL, the “TOTAL PROTEIN” value [3] was 6.3 G/DL and the “URIC ACID” value [3] was 0.97 mg/dL.
